Inhibition and IC50 data for 19 compounds are collected here from patent publication US20260297092A1, “PYRAZOLOPYRIMIDINE DERIVATIVES AS INHIBITORS OF NLRP3” (Takeda Pharmaceutical Company Limited, priority 2023, published 2026).

pIC50: −log10 of the molar value.

In one test the test system is NLRP3 inflammasome (IL-1β production in THP-1 cells). The experiment in a line: IL-1β TR-FRET Assay (percentage of inhibition at 300 nM, 6 μM or 10 μM). The format is cell-based, human. As to conditions: Homo sapiens, THP-1, 300 nM, LPS priming, ATP activation, read-out: IL-1β inhibitory rate at 300 nM (%). The method, then:
The biological activity of the compound of Formula 1 with respect to NLRP3 was determined using the following in vitro method.
IL-1β TR-FRET Assay (reported as percentage of inhibition at 300 nM, 6 μM or 10 μM)
Monocytic THP-1 cells (ATCC: TIB-202) were maintained in accordance with the provider's instructions in RPMI media (Life Technologies, Cat #A10491-01); RPMI was supplemented with 10% heat inactivated fetal bovine serum (Corning, Cat #35-010-CV). The cells were differentiated into macrophages by the addition of 25 ng/mL IFN-γ (PeproTech, Cat #AF-300-02-100UG) for 24 hours at 37° C./5% CO2. Media was exchanged with fresh media with no FBS, and the cells were treated with 50 ng/mL LPS (priming step) (LPS-EK: Invivogen, Cat #tlrl-peklps). The cells were plated at 20,000 cells per well in 384-well flat-bottom cell culture plates (FALCON, Cat #353962) and were incubated for 24 hours at 37° C./5% CO2. Compounds were serially diluted (half log or 5-fold dilutions) with DMSO and were finally diluted with Media with no FBS. The compounds were added to the cells in 384-well plates (added in 1:3) and then the plates were incubated for 30 minutes at 37° C./5% CO2. The NLRP3 inflammasome was activated with the addition of 20 mM ATP (Sigma Cat #A3377-25G) and the cells were incubated for 2 hours at 37° C./5% CO2. At the end of the incubation period, 30 μL supernatant was transferred to another 384-well plate and mixed on a plate shaker for 1 minute. The supernatant was mixed with HTRF Antibody (Human IL1 beta kit, Cisbio, 62HIL1BPEH) in assay plates (Greiner Bio-One, Cat #784075) and the assay plates were incubated in shading box at room temperature for 16-24 hours. HTRF signal was measured by EnVision (Perkinelmer) in accordance with the manufacturer's instructions.
The percentage of inhibition at 300 nM, 6 μM or 10 μM in the IL-1βTR-FRET assay was calculated by the following formula: Percentage of inhibition=[1−(HTRF signaltest−HTRF signalLow)/(HTRF signalHigh−HTRF signalLow)]*100, where HTRF signaltest is the HTRF signal in the well to which test compound is added, HTRF signalLow is the HTRF signal in the well to which 3 μM MCC-950 is added, and the HTRF signalHigh is the HTRF signal in the well to which DMSO is added.
For orientation: TR-FRET usually uses a lanthanide donor and a delayed reading to cut background.
Take `CO[C@@H]1CCCC[C@@H]1c1nc2nn(-c3c(C)cc(C)cc3O)cc2c(=O)[nH]1` (racemic) [Example 12, racemic mixture of 2-(2-hydroxy-4,6-dimethylphenyl)-6-[(1R,2R)-2-methoxycyclohexyl]-2,5-dihydro-4H-pyrazolo[3,4-d]pyrimidin-4-one and 2-(2-hydroxy-4,6-dimethylphenyl)-6-[(1S,2S)-2-methoxycyclohexyl]-2,5-dihydro-4H-pyrazolo[3,4-d]pyrimidin-4-one]: the inhibition at 0.3 µM worked out at 99%.

Staying with this test, now noted: Homo sapiens, THP-1, 6 μM, LPS priming, ATP activation, read-out: IL-1β inhibitory rate at 6 μM (%).
`Cc1cc(Br)cc(C(F)F)c1-n1cc2c(=O)[nH]c(COC(F)F)nc2n1` [Example 279, 2-[4-bromo-2-(difluoromethyl)-6-methylphenyl]-6-[(difluoromethoxy)methyl]-2,5-dihydro-4H-pyrazolo[3,4-d]pyrimidin-4-one]: the inhibition at 6 µM was found to be 100%. For the compound `Cc1c(Br)c(Br)cc(C(F)F)c1-n1cc2c(=O)[nH]c(COC(F)F)nc2n1` [Example 280, 2-[3,4-dibromo-6-(difluoromethyl)-2-methylphenyl]-6-[(difluoromethoxy)methyl]-2,5-dihydro-4H-pyrazolo[3,4-d]pyrimidin-4-one], the inhibition at 6 µM turned out to be 99%. As to `CCc1nc2nn(-c3ccc(C4CC4)c(C(F)F)c3F)cc2c(=O)[nH]1` [Example 281, 2-[4-cyclopropyl-3-(difluoromethyl)-2-fluorophenyl]-6-ethyl-2,5-dihydro-4H-pyrazolo[3,4-d]pyrimidin-4-one], the inhibition at 6 µM came out at 98%.

As to `CCOc1c(-n2cc3c(=O)[nH]c(CC)nc3n2)ccc(C2CC2)c1C(F)F` [Example 282, 2-[4-cyclopropyl-3-(difluoromethyl)-2-ethoxyphenyl]-6-ethyl-2,5-dihydro-4H-pyrazolo[3,4-d]pyrimidin-4-one], the inhibition at 6 µM turned out to be 55%.

Consider `Cc1cc(C2CC2)cc(C)c1-n1cc2c(=O)[nH]c([C@]3(F)CCOC3)nc2n1` [Example 290, 2-(4-cyclopropyl-2,6-dimethylphenyl)-6-[(3S)-3-fluorooxolan-3-yl]-2,5-dihydro-4H-pyrazolo[3,4-d]pyrimidin-4-one or 2-(4-cyclopropyl-2,6-dimethylphenyl)-6-[(3R)-3-fluorooxolan-3-yl]-2,5-dihydro-4H-pyrazolo[3,4-d]pyrimidin-4-one], for which the inhibition at 6 µM was 99%.

As for `Cc1cc(C2(F)CC2)cc(C)c1-n1cc2c(=O)[nH]c(-c3ccn(C)n3)nc2n1` [Example 292, 2-[4-(1-fluorocyclopropyl)-2,6-dimethylphenyl]-6-(1-methyl-1H-pyrazol-3-yl)-2,5-dihydro-4H-pyrazolo[3,4-d]pyrimidin-4-one], the inhibition at 6 µM was 101%. With `Cc1cc(C2CC2)cc(Cl)c1-n1cc2c(=O)[nH]c(COC(F)F)nc2n1` [Example 294, 2-(2-chloro-4-cyclopropyl-6-methylphenyl)-6-[(difluoromethoxy)methyl]-2,5-dihydro-4H-pyrazolo[3,4-d]pyrimidin-4-one], the inhibition at 6 µM was 106%. For the compound `Cc1cc(C2CC2)cc(C)c1-n1cc2c(=O)[nH]c(CO)nc2n1` [Example 304, 2-(4-cyclopropyl-2,6-dimethylphenyl)-6-(hydroxymethyl)-2,5-dihydro-4H-pyrazolo[3,4-d]pyrimidin-4-one], the inhibition at 6 µM was found to be 103%. On to `Cc1cc(C2CC2)cc(C)c1-n1cc2c(=O)[nH]c(C3C=COCC3)nc2n1` (centres unmarked) [Example 306, 2-(4-cyclopropyl-2,6-dimethylphenyl)-6-(3,4-dihydro-2H-pyran-4-yl)-2,5-dihydro-4H-pyrazolo[3,4-d]pyrimidin-4-one], for which the inhibition at 6 µM was determined as 98%. Consider `Cc1cc(C2CC2)cc(C)c1-n1cc2c(=O)[nH]c(C3=CCOCC3)nc2n1` [Example 307, 2-(4-cyclopropyl-2,6-dimethylphenyl)-6-(3,6-dihydro-2H-pyran-4-yl)-2,5-dihydro-4H-pyrazolo[3,4-d]pyrimidin-4-one], for which the inhibition at 6 µM came out at 108%. On to `COc1nc2nn(-c3c(F)cc(C4CC4)cc3CC(F)F)cc2c(=O)[nH]1` [Example 309, 2-[4-cyclopropyl-2-(2,2-difluoroethyl)-6-fluorophenyl]-6-methoxy-2,5-dihydro-4H-pyrazolo [3,4-d]pyrimidin-4-one], for which the inhibition at 6 µM was 99%. For the compound `CCOCc1nc2nn(-c3c(F)cc(C4CC4)cc3C(F)F)cc2c(=O)[nH]1` [Example 314, 2-[4-cyclopropyl-2-(difluoromethyl)-6-fluorophenyl]-6-(ethoxymethyl)-2,5-dihydro-4H-pyrazolo[3,4-d]pyrimidin-4-one], the inhibition at 6 µM was 105%.

`Cc1cc(C2CC2)cc(C)c1-n1cc2c(=O)[nH]c(C3(C)COC3)nc2n1` [Example 315, 2-(4-cyclopropyl-2,6-dimethylphenyl)-6-(3-methyloxetan-3-yl)-2,5-dihydro-4H-pyrazolo [3,4-d]pyrimidin-4-one]: the inhibition at 6 µM stood at 101%. Take `Cc1cc(C2CC2)cc(C)c1-n1cc2c(=O)[nH]c(C3(C#N)CC3)nc2n1` [Example 318, 1-[2-(4-cyclopropyl-2,6-dimethylphenyl)-4-oxo-4,5-dihydro-2H-pyrazolo[3,4-d]pyrimidin-6-yl]cyclopropane-1-carbonitrile]: the inhibition at 6 µM came to 98%. Take `COCc1nc2nn(-c3c(C(F)F)cc(C4CC4)c(C4CC4)c3C)cc2c(=O)[nH]1` [Example 320, 2-[3,4-dicyclopropyl-6-(difluoromethyl)-2-methylphenyl)-6-(methoxymethyl)-2,5-dihydro-4H-pyrazolo[3,4-d]pyrimidin-4-one]: the inhibition at 6 µM was determined as 94%. For the compound `COCc1nc2nn(-c3c(C)cc(C4CC4)cc3CC(F)F)cc2c(=O)[nH]1` [Example 323, 2-[4-cyclopropyl-2-(2,2-difluoroethyl)-6-methylphenyl]-6-(methoxymethyl)-2,5-dihydro-4H-pyrazolo[3,4-d]pyrimidin-4-one], the inhibition at 6 µM amounted to 103%.

The same test, now with this note: Homo sapiens, THP-1, 10 μM, LPS priming, ATP activation, read-out: IL-1β inhibitory rate at 10 μM (%).
`Cc1cc(C2CC2)cc(C(F)F)c1-n1cc2c(=O)[nH]c([C@H]3COCCO3)nc2n1` [Example 325, 2-[4-cyclopropyl-2-(difluoromethyl)-6-methylphenyl]-6-[(2R)-1,4-dioxan-2-yl]-2,5-dihydro-4H-pyrazolo[3,4-d]pyrimidin-4-one or 2-[4-cyclopropyl-2-(difluoromethyl)-6-methylphenyl]-6-[(2S)-1,4-dioxan-2-yl]-2,5-dihydro-4H-pyrazolo[3,4-d]pyrimidin-4-one]: the inhibition at 10 µM worked out at 100%. As for `Cc1cc(C2CC2)cc(C(F)F)c1-n1cc2c(=O)[nH]c([C@@H]3COCCO3)nc2n1` [Example 326, 2-[4-cyclopropyl-2-(difluoromethyl)-6-methylphenyl]-6-[(2S)-1,4-dioxan-2-yl]-2,5-dihydro-4H-pyrazolo[3,4-d]pyrimidin-4-one or 2-[4-cyclopropyl-2-(difluoromethyl)-6-methylphenyl]-6-[(2R)-1,4-dioxan-2-yl]-2,5-dihydro-4H-pyrazolo[3,4-d]pyrimidin-4-one], the inhibition at 10 µM was 111%.

The test system of another test is TNF-α (NF-κB pathway, THP-1 cells). The experiment in a line: TNF-α Assay (IC50). The format is cell-based, human. As to conditions: Homo sapiens, 600 ng/mL LPS, 3 hours. Here is the method:
TNF-α Assay (Reported as IC50)
Monocytic THP-1 cells (ATCC: TIB-202) were maintained in accordance with the provider's instructions in RPMI media (Life Technologies, Cat #A10491-01); RPMI was supplemented with 10% heat inactivated fetal bovine serum (Hyclone Cat #SH30396.03). The cells were differentiated into macrophages by the addition of 25 ng/mL IFN-7 for 24 hours at 37° C./5% CO2. Media was exchanged with fresh media with no FBS. The cells were plated at 40,000 cells per well in 384-well flat-bottom cell culture plates (Costar 3764) containing compounds (added in 1:1000) in a 1:3.16 serial dilution series in DMSO and were incubated for 30 minutes at 37° C./5% CO2. The NF-κB pathway was activated with the addition of 600 ng/mL LPS and the cells were incubated for 3 hours at 37° C./5% CO2. At the end of the incubation period, supernatant ([…]) was removed, and TNF-alpha were monitored using an ELISA (Human TNF-α ELISA, R&D systems, Cat #DY210) according to the manufacturer's instructions. 100% inhibition is determined with positive control, TPCA-1.
The IC50 values in the TNF-α assay were calculated from a plot of percentage of inhibition versus the inhibitor concentration by a logistics curve fit according to: Y=[Bottom+(Top−Bottom)]/(1+10^[(Log IC50−X)·Hill Slope], where Y was the […] at the inhibitor concentration, X, “Bottom” was the lowest inhibition value, i.e., 0%, “Top” was the maximum inhibition value, i.e., 100%, and the “Hill Slope” described the slope of the sigmoidal curve between the “Bottom” and “Top” values. The curve fitting was conducted with internally developed software.
By pIC50 is commonly meant the negative decadic logarithm of the IC50, by convention in mol/L. Low values mean a high IC50, high ones a low IC50. Turning to `CO[C@@H]1CCCC[C@@H]1c1nc2nn(-c3c(C)cc(C)cc3O)cc2c(=O)[nH]1` (racemic) [Example 12, racemic mixture of 2-(2-hydroxy-4,6-dimethylphenyl)-6-[(1R,2R)-2-methoxycyclohexyl]-2,5-dihydro-4H-pyrazolo[3,4-d]pyrimidin-4-one and 2-(2-hydroxy-4,6-dimethylphenyl)-6-[(1S,2S)-2-methoxycyclohexyl]-2,5-dihydro-4H-pyrazolo[3,4-d]pyrimidin-4-one], the pIC50 is 5.47.
